Reference: US11633414B2, “Nicotinoyl riboside compositions and methods of use” (Cornell University, priority 2005, dated 2023)
“Also recorded” adds a separate entry of the source. Like-named read-outs stand apart in the source and are kept apart here.

Assays:
[1] = tested on: Mouse embryonic stem cells; experiment: Effect of NAR on mms mediated cell death (trypan blue counting); format: cell-based; conditions: media supplemented with NAR 1 mM, mms 1 mM (FIG. 2)
Description: 1000 units/mL], named from #1 to #7. […] Mms (200 mM) was added to flask #2, 3, 4, 5, 6, 7 to make final concentration as 1 mM. Cell flask #1 is kept as a control, and used for passage. After 3 hrs incubation, fresh media was changed for flask #4, 5, 6, 7. And Cell #2, and 3 are harvested. After 6 hrs treatment of mms, Cell #4, 5 are harvested. And Cell #6, 7 are harvested at 9 hrs treatment of mms. The harvest cells (living ones) are counted for the percentage of death with trypan blue (see FIG. 2).

[2] = tested on: Mouse embryonic stem cells; experiment: Cell survival after mms treatment and passage with/without NAR (haemocytometry); format: cell-based; conditions: mms 1 mM 3 hrs, NAR 1 mM, counted after two days
Description: Mms (200 mM) was added to both flask #A and #B to make final concentration as 1 mM. After 3 hrs incubation, each cell culture (with/without NR treated) is passed to two new flasks with/without 1 mM of NAR. After two days incubation, count the culture survival in each of these 4 new flasks: mms/control media, mms/NAR media; mms+NAR/control media; mms+NAR/NAR media. It was found after mms treatment, the cultured cells are seriously damaged and only have a very low survival after passage. […] Cell counting by haemocytometry was used to determine survival versus cell number (see FIG. 4).

[3] = tested on: Mouse embryonic stem cells; experiment: Effects of statins on cell viability and mitigation of toxicity by nicotinamide riboside (cell counting and MTT assay); conditions: for IC50: read-out: IC50 for statins in the absence of NR, apparently 7 days
[4] = tested on: Mouse embryonic stem cells; experiment: Increase of cellular NAD+ levels in cells grown on nicotinamide riboside (NAR) enriched medium; format: cell-based
Description: Mouse embryonic stem cells were plated onto cell culture flasks (250 mL, 75 cm^2) and grown to 50% confluence in 48 hours after passage. At 48 hours 2 flasks were set aside as controls and 2 flasks were used to determine effect of NAR on NAD+ biosynthesis. Cells were treated with 1M HClO4, and a specific amount of 180-NAM ([…]) and ^18O-NAD+. Samples were fractionated by HPLC and the fractions containing NAM and NAD+ were analyzed by ESI-MS and MALDI-MS respectively. Peak ratio (^16O/^18O) was used to quantitate NAM and NAD+ amounts in each sample. […] According to our measurement, the NAD+ level in NAR treated cells is 3886.6 pmoL/mg cell protein and nucleic acid content, and the NAD+ in control cells is only 1782.2 pmoL/mg cell protein and nucleic acid content. Cell protein and nucleic acid content were measured separately (see FIG. 3).

[5] = format: physicochemical
Description: The synthesis of nicotinoyl riboside compounds was initiated with the preparation of a preferred intermediate, ethyl 1-[3,4-diacetyloxy-5-(acetyloxymethyl)oxolan-2-yl]-pyridine-3-carboxylate. Nicotinic acid riboside O-alkyl derivatives were prepared from there. Refluxing of the protected sugar, 1,2,3,5-tetra-O-acetyl-β-D-ribofuranose with ethyl nicotinate (1.2 equiv.) in methylene chloride under the catalysis of TMSOTf (1 equiv.) stereoselectively formed β-isomer in good yield (>90%). One of the advantages for this method is that there is no need to go through the silylation of nicotinamide. After evaporation of the solvent, ethyl 1-[3,4-diacetyloxy-5-(acetyloxymethyl)oxolan-2-yl]-pyridine-3-carboxylate could be used directly for the next step. […] Extraction of ethyl acetate from water layer could get rid of most non-polar side products and give 95% of pure products according to TLC. Ethyl 1-[3,4-diacetyloxy-5-(acetyloxymethyl)oxolan-2-yl]-pyridine-3-carboxylate was also treated with NaOCH3/MeOH at −20° C. to form O-methyl nicotinate riboside. Other O-alkyl nicotinate ribosides were prepared similarly. O-Alkyl nicotinate ribosides can be hydrolyzed with esterase (from porcine liver, sigma) at pH=7.0 to afford clean nicotinic acid riboside. Reverse HPLC was used to detect and purify products.

[6] = tested on: Hela cells; experiment: NAD+ content in cells after treatment with nicotinate riboside derivatives (HPLC, MALDI-MS with 18O-NAD+ standard); format: cell-based; conditions: for 16O-NAD+ / [NAD+]/10^6 cell: 24 hrs; for [NAD+]/10^6 cell: control 618
Description: Synthesized compounds (NAR: Nicotinic acid riboside, O-ethyl-NR: ethyl-nicotinate riboside, Intermediate: TAENR, triacetyl-ethyl-nicotinate riboside, See FIG. 10) were added to the cells separately after 24 hours (no compound added for control). The cells were then incubated for another 24 hrs before harvest. Cells were trypsinized and an aliquot removed for counting. […] After mixing thoroughly, samples were pelleted and then neutralized with NaOH to make pH=7˜8. Samples were then centrifuged for 3 minutes and the supernatant (100 uL) was injected onto a C-18 column (Hitachi HPLC L2130 pump L2450 diode array detector) and separated to isolate the peak containing NAD+. The elution was collected during the NAD+ peak and the solution frozen and lyophilized.

**Q.** Which results are given for `NC(=O)c1ccc[n+]([C@@H]2O[C@H](CO)C(O)C2O)c1` (stereo partly drawn) [NAR, β-nicotinamide riboside]?
**A.** cell survival [1]: improvement of cell survival; culture survival after passage [2]: highest culture numbers; mitigation of statin toxicity ([3]; NR 500 μM in cell media, lovastatin, 2, 4 and 7 days, listed as NR): significantly reduces the toxicity of statin; also recorded: mitigates statin toxicity in a significant way; increase of IC50 of the statin in the presence of NR ([3]; NR 500 μM, after 4 and 7 days treatment): two to three; cell viability in the NR treated group versus no NR ([3]; cell counting and MTT assay, at virtually every statin concentration): significantly higher; viable cells at the highest statin concentration ([3]; statin 10 μM, NR treated group, cell counting and MTT assay): significant percentages of viable cells remain; NAD+ level ([4]; NAR treated cells, control cells 1782.2): 3886.6 pmoL/mg cell protein and nucleic acid content; NAD+ concentration compared to the controls ([4]; NAR treated embryonic stem cells vs controls): higher concentration of NAD+; also recorded: increase of intracellular levels of nicotinamide adenine dinucleotide (NAD+)

**Q.** For `NC(=O)c1ccc[n+]([C@@H]2O[C@H](CO)[C@@H](O)[C@H]2O)c1` [NAR, β-nicotinamide riboside], which water solubility [5] is on record?
**A.** extremely water-soluble

**Q.** And the “16O-NAD+” value ([6]; 669 uM)?
**A.** 2201.2 pmol

**Q.** What about the “[NAD+]/10^6 cell” value ([6]; 669 uM) of the same compound?
**A.** 1079 pmoL

**Q.** Which “16O-NAD+” value ([6]; 500 uM) does the source give for `CCOC(=O)c1ccc[n+]([C@@H]2O[C@H](CO)[C@@H](O)[C@H]2O)c1` [O-ethyl NR, O-ethyl β-nicotinic riboside] here?
**A.** 1084.1 pmol

**Q.** What about the “[NAD+]/10^6 cell” value ([6]; 500 uM) of the same compound?
**A.** 1004 pmoL

**Q.** And the “16O-NAD+” value ([6]; 803 uM)?
**A.** 2622.7 pmol

**Q.** What about the “[NAD+]/10^6 cell” value ([6]; 803 uM) of the same compound?
**A.** 2242 pmoL

**Q.** And the “increase over the control NAD+ content” value ([6]; 500 micromolar)?
**A.** 62%

**Q.** And the “NAD+ concentration in cells” value ([6]; 500 micromolar, untreated cells 618)?
**A.** 1004 μmol per million cells

**Q.** And the “increase in NAD+ concentration” value ([6]; 800 micromolar)?
**A.** approximately three

**Q.** What does the source list for `CCOC(=O)c1ccc[n+]([C@@H]2O[C@H](COC(C)=O)C(OC(C)=O)[C@@H]2OC(C)=O)c1` (stereo partly shown) [TAENR, ethyl 1-[3,4-diacetyloxy-5-(acetyloxymethyl)oxolan-2-yl]-pyridine-3-carboxylate]?
**A.** 16O-NAD+ ([6]; 750 uM): 4432.2 pmol; [NAD+]/10^6 cell ([6]; 750 uM): 2052 pmoL; increase of NAD+ concentrations in cells ([6]; concentration of Table 3 (750 uM)): three

**Q.** For `O=C(O)c1ccc[n+]([C@@H]2O[C@H](CO)C(O)C2O)c1` (stereo partly drawn) [nicotinic acid riboside, β-Nicotinic acid riboside], which “increase of NAD+ concentrations in cells” value ([6]; concentrations of Table 3) is on record?
**A.** 60%

**Q.** Which results are given for `CC[C@H](C)C(=O)O[C@H]1C[C@@H](C)C=C2C=C[C@H](C)[C@H](CC[C@@H]3C[C@@H](O)CC(=O)O3)[C@H]21` [statin, lovastatin, reference compound]?
**A.** IC50 ([3]; determined by MTT assay): 216 nM; IC50 ([3]; determined by cell counting): 248 nM; cell viability at the highest statin concentration ([3]; statin 10 μM, no NR group): almost completely non-viable
